From the supplement of paper PMC10307832

How the values were obtained:
Assay in all cases: relative viability (nuclei count vs DMSO), 5 days (fraction); higher = more cells survive
[1] = system: NCI-H2170
Summary of the method: (§1)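 Medians of duplicate plates are given as relative viability. That measure is the nuclei count in treated wells divided by the count in vehicle wells. Counts were taken on 4× images of lung cancer cell lines in 1536-well plates, 5 days after pin-tool dosing the day after seeding with one drug alone or a fixed anchor-drug dose plus five library-drug doses (not always all listed) in √10 steps.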

[2] = system: EKVX
Summary of the method: as §1

[3] = system: NCI-H2087
Summary of the method: as §1

[4] = system: NCI-H1395
Summary of the method: as §1

[5] = system: NCI-H2009
Summary of the method: as §1

[6] = system: NCI-H1734
Summary of the method: as §1

[7] = system: NCI-H2228
Summary of the method: as §1

[8] = system: HCC-366
Summary of the method: as §1

[9] = system: NCI-H1355
Summary of the method: as §1

[10] = system: BEN
Summary of the method: as §1

[11] = system: HCC-827
Summary of the method: as §1

[12] = system: SK-LU-1
Summary of the method: as §1

[13] = system: NCI-H2405
Summary of the method: as §1

[14] = system: HARA
Summary of the method: as §1

[15] = system: NCI-H661
Summary of the method: as §1

[16] = system: NCI-H596
Summary of the method: as §1

[17] = system: NCI-H647
Summary of the method: as §1

[18] = system: SK-MES-1
Summary of the method: as §1

[19] = system: NCI-H2342
Summary of the method: as §1

[20] = system: NCI-H1437
Summary of the method: as §1

[21] = system: LC-2-ad
Summary of the method: as §1

[22] = system: LOU-NH91
Summary of the method: as §1

C=C1C(=O)O[C@@H](CCCCCCCC)[C@@H]1C(=O)O [C-75] + Cc1cc(Nc2cc(N3CCN(C)CC3)nc(Sc3ccc(NC(=O)C4CC4)cc3)n2)n[nH]1 [Tozasertib] (partner 0.1 µM)
relative viability ([1]; first compound 0.08 µM): 0.682 | relative viability ([1]; first compound 0.253 µM): 0.826 | relative viability ([1]; first compound 0.8 µM): 0.796 | relative viability ([1]; first compound 2.53 µM): 0.291 | relative viability ([1]; first compound 8 µM): 0.861 | relative viability ([2]; first compound 0.08 µM): 0.42 | relative viability ([2]; first compound 0.253 µM): 0.56 | relative viability ([2]; first compound 0.8 µM): 0.406 | relative viability ([2]; first compound 8 µM): 0.382 | relative viability ([3]; first compound 0.08 µM): 0.245 | relative viability ([3]; first compound 0.253 µM): 0.294 | relative viability ([3]; first compound 0.8 µM): 0.179 | relative viability ([3]; first compound 2.53 µM): 0.228 | relative viability ([3]; first compound 8 µM): 0.305 | relative viability ([4]; first compound 0.08 µM): 0.73 | relative viability ([4]; first compound 0.253 µM): 0.732 | relative viability ([4]; first compound 0.8 µM): 0.803 | relative viability ([4]; first compound 2.53 µM): 0.669 | relative viability ([4]; first compound 8 µM): 0.795 | relative viability ([5]; first compound 0.08 µM): 0.724 | relative viability ([5]; first compound 0.253 µM): 0.743 | relative viability ([5]; first compound 0.8 µM): 0.743 | relative viability ([5]; first compound 2.53 µM): 0.707 | relative viability ([5]; first compound 8 µM): 0.691 | relative viability ([6]; first compound 0.08 µM): 0.286 | relative viability ([6]; first compound 0.253 µM): 0.225 | relative viability ([6]; first compound 0.8 µM): 0.262 | relative viability ([6]; first compound 2.53 µM): 0.198 | relative viability ([6]; first compound 8 µM): 0.235 | relative viability ([7]; first compound 0.08 µM): 0.29 | relative viability ([7]; first compound 0.253 µM): 0.344 | relative viability ([7]; first compound 0.8 µM): 0.26 | relative viability ([7]; first compound 2.53 µM): 0.25 | relative viability ([7]; first compound 8 µM): 0.269 | relative viability ([8]; first compound 0.08 µM): 0.197 | relative viability ([8]; first compound 0.253 µM): 0.151 | relative viability ([8]; first compound 0.8 µM): 0.158 | relative viability ([8]; first compound 8 µM): 0.115 | relative viability ([9]; first compound 0.08 µM): 0.595 | relative viability ([9]; first compound 0.253 µM): 0.579 | relative viability ([9]; first compound 0.8 µM): 0.522 | relative viability ([9]; first compound 2.53 µM): 0.554 | relative viability ([9]; first compound 8 µM): 0.517 | relative viability ([10]; first compound 0.08 µM): 0.494 | relative viability ([10]; first compound 0.253 µM): 0.605 | relative viability ([10]; first compound 0.8 µM): 0.544 | relative viability ([10]; first compound 2.53 µM): 0.484 | relative viability ([10]; first compound 8 µM): 0.612 | relative viability ([11]; first compound 0.08 µM): 0.428 | relative viability ([11]; first compound 0.253 µM): 0.413 | relative viability ([11]; first compound 0.8 µM): 0.431 | relative viability ([11]; first compound 2.53 µM): 0.379 | relative viability ([11]; first compound 8 µM): 0.411 | relative viability ([12]; first compound 0.08 µM): 0.349 | relative viability ([12]; first compound 0.253 µM): 0.374 | relative viability ([12]; first compound 0.8 µM): 0.357 | relative viability ([12]; first compound 2.53 µM): 0.314 | relative viability ([12]; first compound 8 µM): 0.311 | relative viability ([13]; first compound 0.08 µM): 0.747 | relative viability ([13]; first compound 0.253 µM): 0.683 | relative viability ([13]; first compound 0.8 µM): 0.756 | relative viability ([13]; first compound 2.53 µM): 0.772 | relative viability ([13]; first compound 8 µM): 0.81 | relative viability ([14]; first compound 0.08 µM): 0.149 | relative viability ([14]; first compound 0.253 µM): 0.0813 | relative viability ([14]; first compound 0.8 µM): 0.112 | relative viability ([14]; first compound 2.53 µM): 0.0971 | relative viability ([14]; first compound 8 µM): 0.145 | relative viability ([15]; first compound 0.08 µM): 0.355 | relative viability ([15]; first compound 0.253 µM): 0.347 | relative viability ([15]; first compound 0.8 µM): 0.334 | relative viability ([15]; first compound 2.53 µM): 0.288 | relative viability ([15]; first compound 8 µM): 0.339 | relative viability ([16]; first compound 0.08 µM): 0.889 | relative viability ([16]; first compound 0.253 µM): 1.09 | relative viability ([16]; first compound 0.8 µM): 0.728 | relative viability ([16]; first compound 2.53 µM): 0.83 | relative viability ([16]; first compound 8 µM): 0.821 | relative viability ([17]; first compound 0.08 µM): 0.24 | relative viability ([17]; first compound 0.253 µM): 0.365 | relative viability ([17]; first compound 0.8 µM): 0.211 | relative viability ([17]; first compound 2.53 µM): 0.457 | relative viability ([17]; first compound 8 µM): 0.233 | relative viability ([18]; first compound 0.08 µM): 0.924 | relative viability ([18]; first compound 0.253 µM): 0.989 | relative viability ([18]; first compound 0.8 µM): 0.823 | relative viability ([18]; first compound 2.53 µM): 0.863 | relative viability ([18]; first compound 8 µM): 0.898 | relative viability ([19]; first compound 0.08 µM): 0.652 | relative viability ([19]; first compound 0.253 µM): 0.503 | relative viability ([19]; first compound 0.8 µM): 0.604 | relative viability ([19]; first compound 2.53 µM): 0.496 | relative viability ([19]; first compound 8 µM): 0.472 | relative viability ([20]; first compound 0.08 µM): 0.387 | relative viability ([20]; first compound 0.253 µM): 0.462 | relative viability ([20]; first compound 0.8 µM): 0.442 | relative viability ([20]; first compound 2.53 µM): 0.355 | relative viability ([20]; first compound 8 µM): 0.437 | relative viability ([21]; first compound 0.08 µM): 0.515 | relative viability ([21]; first compound 0.253 µM): 0.503 | relative viability ([21]; first compound 0.8 µM): 0.443 | relative viability ([21]; first compound 2.53 µM): 0.418 | relative viability ([21]; first compound 8 µM): 0.399 | relative viability ([22]; first compound 0.08 µM): 0.694 | relative viability ([22]; first compound 0.253 µM): 0.561 | relative viability ([22]; first compound 0.8 µM): 0.597 | relative viability ([22]; first compound 2.53 µM): 0.495 | relative viability ([22]; first compound 8 µM): 0.642
